From ChEMBL document CHEMBL4376823, “The discovery of a potent and selective third-generation EGFR kinase inhibitor as a therapy for EGFR L858R/T790M double mutant non-small cell lung cancer” (Eur J Med Chem, 2019)

Columns and labels:
[1] = AUC (0 to t) in ICR mouse at 5 mg/kg, iv; type: ADME, organism-based; conditions: in vivo
PC-9 = test: Antiproliferative activity against human PC9 cells expressing EGFR L858R mutant assessed as reduction in cell viability incubated for 72 hrs by MTT assay; type: functional, cell-based; conditions: pc-9
[2] = molecular target: T1, Epidermal growth factor receptor (Homo sapiens, UniProt P00533); test: Inhibition of EGFR in human NCI-H292 cells assessed as reduction in EGFR Y1068 phosphorylation at incubated for 4 hrs by Western blot analysis; type: cell-based
[3] = MRT (0 to infinity) in ICR mouse at 5 mg/kg, iv; type: ADME, organism-based; conditions: in vivo
NCI-H1975 [4] = test: Induction of apoptosis in human NCI-H1975 cells assessed as viable cells at 5 nM incubated for 72 hrs by propidium iodide and annexin-V FITC staining based flow cytometry (reference value: 97.55 %); type: functional; conditions: NCI-H1975, 72 h, read-out: Activity
NCI-H1975 [5] = test: Induction of apoptosis in human NCI-H1975 cells assessed as early apoptotic cells at 5 nM incubated for 48 hrs by propidium iodide and annexin-V FITC staining based flow cytometry (reference value: 0.95 %); type: functional
NCI-H1975 [6] = test: Induction of apoptosis in human NCI-H1975 cells assessed as viable cells at 25 nM incubated for 72 hrs by propidium iodide and annexin-V FITC staining based flow cytometry (reference value: 97.55 %); type: functional; conditions: NCI-H1975, 72 h, read-out: Activity
NCI-H1975 [7] = test: Induction of apoptosis in human NCI-H1975 cells assessed as late apoptotic cells at 5 nM incubated for 72 hrs by propidium iodide and annexin-V FITC staining based flow cytometry (reference value: 0.01 %); type: functional
[8] = molecular target: Epidermal growth factor receptor (Homo sapiens, UniProt P00533, L858R); test: Inhibition of recombinant human GST-tagged EGFR L858R mutant expressed in baculovirus expression system using Tyr 04 as substrate incubated for 1 hr by Z'-LYTE assay
NCI-H1975 [9] = test: Induction of apoptosis in human NCI-H1975 cells assessed as necrotic cells at 5 nM incubated for 48 hrs by propidium iodide and annexin-V FITC staining based flow cytometry (reference value: 0.01 %); type: functional
[10] = Cmax in ICR mouse at 10 mg/kg, po; type: ADME, organism-based; parameters: dose 10 mg/kg, route oral; conditions: in vivo
NCI-H1975 [11] = test: Inhibition of cell migration in human NCI-H1975 cells at 5 nM incubated for 24 hrs by phase contrast microscopy relative to control; type: functional; conditions: NCI-H1975, 24 h
NCI-H1975 [12] = test: Induction of apoptosis in human NCI-H1975 cells assessed as early apoptotic cells at 50 nM incubated for 24 hrs by propidium iodide and annexin-V FITC staining based flow cytometry (reference value: 0.94 %); type: functional
NCI-H1975 [13] = test: Induction of apoptosis in human NCI-H1975 cells assessed as early apoptotic cells at 5 nM incubated for 24 hrs by propidium iodide and annexin-V FITC staining based flow cytometry (reference value: 0.94 %); type: functional
NCI-H1975 [14] = test: Induction of apoptosis in human NCI-H1975 cells assessed as necrotic cells at 5 nM incubated for 72 hrs by propidium iodide and annexin-V FITC staining based flow cytometry (reference value: 0.01 %); type: functional
NCI-H1975 [15] = test: Induction of apoptosis in human NCI-H1975 cells assessed as early apoptotic cells at 50 nM incubated for 72 hrs by propidium iodide and annexin-V FITC staining based flow cytometry (reference value: 2.43 %); type: functional
[16] = molecular target: T1, Epidermal growth factor receptor; test: Inhibition of recombinant human GST-tagged EGFR (668 to 1210 residues) expressed in baculovirus expression system using Tyr 04 as substrate incubated for 1 hr by Z'-LYTE assay
[17] = Selectivity index, ratio of IC50 for human LO2 cells to IC50 for human NCI-H1975 cells expressing EGFR T790M/L858R mutant; type: toxicity
NCI-H1975 [18] = test: Induction of apoptosis in human NCI-H1975 cells assessed as late apoptotic cells at 5 nM incubated for 48 hrs by propidium iodide and annexin-V FITC staining based flow cytometry (reference value: 0.23 %); type: functional
NCI-H1975 [19] = test: Induction of apoptosis in human NCI-H1975 cells assessed as viable cells at 5 nM incubated for 24 hrs by propidium iodide and annexin-V FITC staining based flow cytometry (reference value: 98.82 %); type: functional; conditions: NCI-H1975, 24 h, read-out: Activity
NCI-H1975 [20] = test: Induction of apoptosis in human NCI-H1975 cells assessed as viable cells at 25 nM incubated for 48 hrs by propidium iodide and annexin-V FITC staining based flow cytometry (reference value: 99.05 %); type: functional; conditions: NCI-H1975, 48 h, read-out: Activity
NCI-H1975 [21] = test: Induction of apoptosis in human NCI-H1975 cells assessed as late apoptotic cells at 25 nM incubated for 24 hrs by propidium iodide and annexin-V FITC staining based flow cytometry (reference value: 0.23 %); type: functional
NCI-H1975 [22] = test: Induction of apoptosis in human NCI-H1975 cells assessed as late apoptotic cells at 50 nM incubated for 48 hrs by propidium iodide and annexin-V FITC staining based flow cytometry (reference value: 0.23 %); type: functional
[23] = Tmax in ICR mouse at 10 mg/kg, po; type: ADME, organism-based; conditions: in vivo
[24] = MRT (0 to t) in ICR mouse at 5 mg/kg, iv; type: ADME, organism-based; conditions: in vivo
[25] = Selectivity index, ratio of IC50 for human BJ cells to IC50 for human NCI-H1975 cells expressing EGFR T790M/L858R mutant; type: toxicity
[26] = molecular target: T2, Epidermal growth factor receptor (Homo sapiens, UniProt P00533, L858R/T790M); test: Inhibition of recombinant human GST-tagged EGFR T790M/L858R mutant expressed in baculovirus expression system using Tyr 04 as substrate incubated for 1 hr by Z'-LYTE assay
Target sequence in this assay (P00533 25-1210 T790M/L858R limits assumed): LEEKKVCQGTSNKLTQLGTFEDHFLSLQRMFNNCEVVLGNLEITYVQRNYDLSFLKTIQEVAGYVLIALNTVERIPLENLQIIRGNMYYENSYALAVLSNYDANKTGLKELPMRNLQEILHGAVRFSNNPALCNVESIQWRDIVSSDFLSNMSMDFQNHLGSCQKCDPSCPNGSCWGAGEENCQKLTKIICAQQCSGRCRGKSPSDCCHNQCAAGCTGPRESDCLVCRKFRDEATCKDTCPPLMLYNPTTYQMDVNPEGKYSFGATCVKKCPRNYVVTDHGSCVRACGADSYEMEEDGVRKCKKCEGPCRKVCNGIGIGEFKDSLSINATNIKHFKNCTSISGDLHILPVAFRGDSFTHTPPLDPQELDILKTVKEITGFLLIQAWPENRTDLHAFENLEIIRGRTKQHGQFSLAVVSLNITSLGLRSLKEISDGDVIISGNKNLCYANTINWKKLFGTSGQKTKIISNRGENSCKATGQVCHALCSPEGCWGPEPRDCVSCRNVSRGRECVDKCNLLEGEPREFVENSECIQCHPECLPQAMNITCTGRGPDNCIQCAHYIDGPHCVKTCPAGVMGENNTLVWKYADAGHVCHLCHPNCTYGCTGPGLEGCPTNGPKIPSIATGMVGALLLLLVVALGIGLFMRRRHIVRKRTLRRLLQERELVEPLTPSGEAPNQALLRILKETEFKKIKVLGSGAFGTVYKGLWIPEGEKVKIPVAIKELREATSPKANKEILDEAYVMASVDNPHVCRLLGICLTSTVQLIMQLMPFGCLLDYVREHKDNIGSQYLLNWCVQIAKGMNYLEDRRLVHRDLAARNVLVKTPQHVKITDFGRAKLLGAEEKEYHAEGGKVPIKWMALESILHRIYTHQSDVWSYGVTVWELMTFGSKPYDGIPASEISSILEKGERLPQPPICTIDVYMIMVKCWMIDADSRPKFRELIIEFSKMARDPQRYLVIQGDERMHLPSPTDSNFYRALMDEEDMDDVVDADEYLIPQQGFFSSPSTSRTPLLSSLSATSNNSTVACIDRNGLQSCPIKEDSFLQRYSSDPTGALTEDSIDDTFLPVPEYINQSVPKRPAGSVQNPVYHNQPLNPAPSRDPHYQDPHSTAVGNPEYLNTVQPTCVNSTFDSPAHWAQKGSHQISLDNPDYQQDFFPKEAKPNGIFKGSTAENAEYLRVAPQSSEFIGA

[27] = Selectivity index, ratio of IC50 for human HEK293A cells to IC50 for human NCI-H1975 cells expressing EGFR T790M/L858R mutant; type: toxicity
NCI-H1975 [28] = test: Induction of apoptosis in human NCI-H1975 cells assessed as viable cells at 25 nM incubated for 24 hrs by propidium iodide and annexin-V FITC staining based flow cytometry (reference value: 98.82 %); type: functional; conditions: NCI-H1975, 24 h, read-out: Activity
NCI-H1975 [29] = test: Induction of apoptosis in human NCI-H1975 cells assessed as late apoptotic cells at 25 nM incubated for 48 hrs by propidium iodide and annexin-V FITC staining based flow cytometry (reference value: 0.23 %); type: functional
[30] = molecular target: T2, Epidermal growth factor receptor; test: Inhibition of EGFR T790M/L858R mutant in human NCI-H1975 cells assessed as reduction in EGFR Y1068 phosphorylation incubated for 4 hrs by Western blot analysis; type: cell-based
Target sequence in this assay (P00533 whole entry T790M/L858R, looked up): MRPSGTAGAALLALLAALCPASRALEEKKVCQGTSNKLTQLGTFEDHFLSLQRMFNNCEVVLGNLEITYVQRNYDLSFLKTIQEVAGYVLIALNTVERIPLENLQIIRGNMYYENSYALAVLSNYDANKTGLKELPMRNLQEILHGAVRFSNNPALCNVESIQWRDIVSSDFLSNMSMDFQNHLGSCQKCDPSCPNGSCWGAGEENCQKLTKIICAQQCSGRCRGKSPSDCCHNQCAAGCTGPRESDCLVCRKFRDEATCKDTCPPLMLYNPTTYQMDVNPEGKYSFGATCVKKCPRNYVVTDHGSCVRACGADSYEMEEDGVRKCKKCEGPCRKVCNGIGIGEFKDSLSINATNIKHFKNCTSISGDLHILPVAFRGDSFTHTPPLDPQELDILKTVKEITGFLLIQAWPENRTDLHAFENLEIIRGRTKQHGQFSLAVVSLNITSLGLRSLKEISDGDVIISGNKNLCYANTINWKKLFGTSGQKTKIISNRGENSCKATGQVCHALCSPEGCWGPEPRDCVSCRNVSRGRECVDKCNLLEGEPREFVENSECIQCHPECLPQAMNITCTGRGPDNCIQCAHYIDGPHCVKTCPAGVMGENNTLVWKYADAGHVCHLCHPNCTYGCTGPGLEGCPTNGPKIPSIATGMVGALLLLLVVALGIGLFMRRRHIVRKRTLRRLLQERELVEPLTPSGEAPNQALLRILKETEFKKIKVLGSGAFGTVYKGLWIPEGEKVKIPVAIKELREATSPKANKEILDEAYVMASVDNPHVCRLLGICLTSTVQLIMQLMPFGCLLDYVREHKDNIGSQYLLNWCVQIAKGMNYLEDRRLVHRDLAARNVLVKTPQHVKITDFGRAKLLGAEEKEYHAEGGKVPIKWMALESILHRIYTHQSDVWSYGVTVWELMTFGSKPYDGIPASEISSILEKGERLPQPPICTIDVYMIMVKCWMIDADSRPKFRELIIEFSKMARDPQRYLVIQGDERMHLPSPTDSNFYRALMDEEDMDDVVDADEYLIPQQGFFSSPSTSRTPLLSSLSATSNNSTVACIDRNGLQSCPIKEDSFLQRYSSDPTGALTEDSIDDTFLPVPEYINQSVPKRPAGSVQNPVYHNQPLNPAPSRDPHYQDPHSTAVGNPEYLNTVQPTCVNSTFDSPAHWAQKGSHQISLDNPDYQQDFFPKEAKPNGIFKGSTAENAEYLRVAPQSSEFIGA

NCI-H1975 [31] = test: Induction of apoptosis in human NCI-H1975 cells assessed as early apoptotic cells at 25 nM incubated for 24 hrs by propidium iodide and annexin-V FITC staining based flow cytometry (reference value: 0.94 %); type: functional
[32] = Oral bioavailability in ICR mouse at 10 mg/kg; type: ADME, organism-based; conditions: in vivo
[33] = Selectivity index, ratio of IC50 for human HLF cells to IC50 for human NCI-H1975 cells expressing EGFR T790M/L858R mutant
NCI-H1975 [34] = test: Induction of apoptosis in human NCI-H1975 cells assessed as late apoptotic cells at 25 nM incubated for 72 hrs by propidium iodide and annexin-V FITC staining based flow cytometry (reference value: 0.01 %); type: functional

T1 sequence (P00533 whole entry): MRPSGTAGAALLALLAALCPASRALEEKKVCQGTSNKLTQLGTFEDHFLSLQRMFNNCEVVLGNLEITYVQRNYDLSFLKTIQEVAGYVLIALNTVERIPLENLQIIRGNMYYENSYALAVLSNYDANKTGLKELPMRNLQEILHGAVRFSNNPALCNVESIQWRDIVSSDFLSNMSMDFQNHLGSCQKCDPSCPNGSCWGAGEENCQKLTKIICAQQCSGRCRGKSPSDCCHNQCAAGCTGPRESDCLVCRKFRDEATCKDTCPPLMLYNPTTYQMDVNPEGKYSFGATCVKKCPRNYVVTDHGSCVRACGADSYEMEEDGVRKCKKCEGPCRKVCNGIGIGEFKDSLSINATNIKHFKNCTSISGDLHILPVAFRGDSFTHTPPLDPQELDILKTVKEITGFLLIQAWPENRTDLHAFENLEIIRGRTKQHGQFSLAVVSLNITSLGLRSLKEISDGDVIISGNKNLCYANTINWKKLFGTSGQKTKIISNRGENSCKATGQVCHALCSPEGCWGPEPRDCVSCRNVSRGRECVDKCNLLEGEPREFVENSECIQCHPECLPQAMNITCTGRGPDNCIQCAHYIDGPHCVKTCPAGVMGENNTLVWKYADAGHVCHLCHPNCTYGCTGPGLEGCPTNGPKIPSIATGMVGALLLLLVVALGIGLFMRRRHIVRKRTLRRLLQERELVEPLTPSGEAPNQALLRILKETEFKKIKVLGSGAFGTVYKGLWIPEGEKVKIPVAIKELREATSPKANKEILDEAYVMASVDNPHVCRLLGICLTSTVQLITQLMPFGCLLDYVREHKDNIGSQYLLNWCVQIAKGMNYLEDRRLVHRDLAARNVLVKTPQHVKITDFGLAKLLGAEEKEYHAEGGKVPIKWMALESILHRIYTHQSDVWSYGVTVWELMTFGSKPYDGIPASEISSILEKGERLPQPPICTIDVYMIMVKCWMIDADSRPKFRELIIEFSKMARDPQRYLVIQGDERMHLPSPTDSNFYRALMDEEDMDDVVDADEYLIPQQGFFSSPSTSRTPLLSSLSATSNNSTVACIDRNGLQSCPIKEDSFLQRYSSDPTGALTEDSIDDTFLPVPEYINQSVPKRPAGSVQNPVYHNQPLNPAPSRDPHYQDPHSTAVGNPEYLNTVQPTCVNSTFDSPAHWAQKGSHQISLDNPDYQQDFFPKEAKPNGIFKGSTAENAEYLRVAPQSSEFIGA
Epidermal growth factor receptor (Homo sapiens, UniProt P00533, L858R), sequence (P00533 25-1210 L858R limits assumed): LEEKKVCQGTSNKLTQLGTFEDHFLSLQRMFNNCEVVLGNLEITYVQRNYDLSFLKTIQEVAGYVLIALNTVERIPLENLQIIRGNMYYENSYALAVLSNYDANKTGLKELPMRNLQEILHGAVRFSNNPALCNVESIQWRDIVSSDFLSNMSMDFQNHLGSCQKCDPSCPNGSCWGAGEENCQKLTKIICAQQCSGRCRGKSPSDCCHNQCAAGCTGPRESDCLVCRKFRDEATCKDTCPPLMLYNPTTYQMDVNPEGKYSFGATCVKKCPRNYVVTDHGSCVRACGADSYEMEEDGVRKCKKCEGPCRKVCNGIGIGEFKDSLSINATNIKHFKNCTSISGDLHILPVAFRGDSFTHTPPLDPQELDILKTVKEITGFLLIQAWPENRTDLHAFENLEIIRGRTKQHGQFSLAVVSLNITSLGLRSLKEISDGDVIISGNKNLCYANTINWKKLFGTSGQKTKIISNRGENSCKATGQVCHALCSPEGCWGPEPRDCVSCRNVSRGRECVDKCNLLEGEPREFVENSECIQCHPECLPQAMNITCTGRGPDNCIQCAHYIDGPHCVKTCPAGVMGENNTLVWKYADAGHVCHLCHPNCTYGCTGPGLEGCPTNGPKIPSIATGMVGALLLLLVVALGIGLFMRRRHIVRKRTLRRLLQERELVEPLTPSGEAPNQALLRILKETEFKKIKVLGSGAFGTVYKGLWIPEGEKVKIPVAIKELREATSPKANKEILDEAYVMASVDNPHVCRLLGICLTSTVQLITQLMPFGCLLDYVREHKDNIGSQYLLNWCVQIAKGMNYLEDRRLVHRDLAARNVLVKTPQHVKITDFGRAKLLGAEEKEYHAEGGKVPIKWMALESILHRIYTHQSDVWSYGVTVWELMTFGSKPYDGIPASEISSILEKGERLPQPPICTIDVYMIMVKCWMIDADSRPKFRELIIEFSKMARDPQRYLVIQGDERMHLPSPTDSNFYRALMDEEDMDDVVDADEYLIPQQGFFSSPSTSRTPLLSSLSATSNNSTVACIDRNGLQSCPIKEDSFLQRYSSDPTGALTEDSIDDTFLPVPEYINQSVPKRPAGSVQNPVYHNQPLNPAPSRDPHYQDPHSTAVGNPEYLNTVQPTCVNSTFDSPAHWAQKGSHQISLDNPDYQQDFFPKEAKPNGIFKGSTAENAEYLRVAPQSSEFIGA

C=CC(=O)Nc1cc(Nc2nccc(-c3cn(C)c4ccccc34)n2)c(OC)cc1[S+]([O-])CCN(C)C (single isomer, unassigned; (-))
AUC(0-t) [1]: 1.29 µg·h/mL
IC50 (PC-9): 0.015 µM
EC50 [2]: 0.0902 µM
MRT inf [3]: 1.21 h
viability at 0.005 µM (NCI-H1975 [4]): 57.5%
Activity (NCI-H1975 [5]): 22.89%
viability at 0.025 µM (NCI-H1975 [6]): 35.2%
Activity (NCI-H1975 [7]): 18.71%
IC50 [8]: 0.004 µM
Activity (NCI-H1975 [9]): 0.05%
Cmax [10]: 0.695 µg/mL
inhibition at 0.005 µM (NCI-H1975 [11]): 45.1%
Activity (NCI-H1975 [12]): 31.61%
Activity (NCI-H1975 [13]): 14.89%
Activity (NCI-H1975 [14]): 1.2%
Activity (NCI-H1975 [15]): 58.1%
IC50 [16]: 0.229 µM
Ratio IC50 [17]: > 1000
Activity (NCI-H1975 [18]): 0.06%
viability at 0.005 µM (NCI-H1975 [19]): 83.6%
viability at 0.025 µM (NCI-H1975 [20]): 44.7%
Activity (NCI-H1975 [21]): 0.86%
Activity (NCI-H1975 [22]): 29.59%
Tmax [23]: 0.5 h
MRT last [24]: 1.15 h
Ratio IC50 [25]: > 1000
IC50 [26]: 0.004 µM
Ratio IC50 [27]: 192
viability at 0.025 µM (NCI-H1975 [28]): 76.8%
Activity (NCI-H1975 [29]): 2.73%
EC50 [30]: 0.00706 µM
Activity (NCI-H1975 [31]): 22.23%
bioavailability [32]: 73.7%
Ratio IC50 [33]: 910
Activity (NCI-H1975 [34]): 21.68%
